Results taken from article PMC9585082, “Structural insight into the ligand binding mechanism of aryl hydrocarbon receptor” (Nature Communications, 2022).

Key:
dAHR PAS-B = biological target: T1, dAHR PAS-B (Drosophila melanogaster, UniProt O61543, M284C/Y336L); assay: label-free MST; assay type: binding
T1 construct: gene ss; PAS-B domain (residues 264–381)

mAHR = biological target: T2, mAHR (Mus musculus, UniProt P30561); assay: DRE luciferase reporter assay in HEK293T expressing mAHR (agonist at […]); assay type: cell-based
T2 construct: gene Ahr; full-length
T2 sequence (P30561 10-848): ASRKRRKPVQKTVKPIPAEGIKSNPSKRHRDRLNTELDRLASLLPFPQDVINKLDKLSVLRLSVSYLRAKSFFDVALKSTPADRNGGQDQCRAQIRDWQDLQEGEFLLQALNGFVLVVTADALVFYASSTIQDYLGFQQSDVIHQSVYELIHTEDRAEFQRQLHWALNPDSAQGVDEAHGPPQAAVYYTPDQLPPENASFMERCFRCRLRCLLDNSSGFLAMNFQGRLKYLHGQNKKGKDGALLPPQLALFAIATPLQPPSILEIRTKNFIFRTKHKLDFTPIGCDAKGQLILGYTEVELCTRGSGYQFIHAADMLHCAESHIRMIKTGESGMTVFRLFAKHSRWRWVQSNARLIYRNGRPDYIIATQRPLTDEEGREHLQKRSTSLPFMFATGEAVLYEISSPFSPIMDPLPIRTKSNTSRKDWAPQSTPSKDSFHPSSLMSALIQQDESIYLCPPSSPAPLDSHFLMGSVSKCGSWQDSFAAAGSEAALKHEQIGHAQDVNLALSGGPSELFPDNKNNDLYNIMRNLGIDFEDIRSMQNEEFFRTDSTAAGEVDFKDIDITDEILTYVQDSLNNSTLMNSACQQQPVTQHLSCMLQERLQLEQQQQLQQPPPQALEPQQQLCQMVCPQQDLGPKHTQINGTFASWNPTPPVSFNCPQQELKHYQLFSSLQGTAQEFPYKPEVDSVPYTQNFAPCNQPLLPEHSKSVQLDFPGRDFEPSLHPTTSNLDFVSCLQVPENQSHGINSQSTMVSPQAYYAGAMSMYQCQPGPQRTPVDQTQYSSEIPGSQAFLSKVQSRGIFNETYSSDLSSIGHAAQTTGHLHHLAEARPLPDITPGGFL
From the text: FICZ, βNF and BaP were supplied

T1 sequence (O61543 entry or part of it M284C/Y336L): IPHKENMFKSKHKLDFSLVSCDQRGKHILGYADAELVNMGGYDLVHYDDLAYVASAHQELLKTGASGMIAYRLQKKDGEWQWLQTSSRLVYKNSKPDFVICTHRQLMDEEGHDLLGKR

| Compound | Kd (dAHR PAS-B) [nM] | DRE luciferase reporter assay in HEK293T expressing mAHR (agonist at 500 nM) (mAHR) | DRE luciferase reporter assay in HEK293T expressing mAHR (agonist at 200 nM) (mAHR) |
| --- | --- | --- | --- |
| O=c1cc(-c2ccccc2)oc2ccc3ccccc3c12 [βNF] | ~400 | transactivation of mAHR in HEK293T cells in the presence or absence of agonists. FICZ, βNF and BaP were supplied | – |
| c1ccc2c(c1)cc1ccc3cccc4ccc2c1c34 [BaP] | – | – | transactivation of mAHR in HEK293T cells in the presence or absence of agonists. FICZ, βNF and BaP were supplied |
| O=Cc1c2[nH]c3ccccc3c2cc2[nH]c3ccccc3c12 [FICZ] | ~800 | – | transactivation of mAHR in HEK293T cells in the presence or absence of agonists. FICZ, βNF and BaP were supplied |
